Each structure is given as a SMILES string. pIC50: −log10 of the molar value.

This experiment concerns aorta rings. Kind of experiment: Vasorelaxant action in vitro (phenylephrine-contracted rabbit aorta rings, organ bath). To be noted: Oryctolagus cuniculus; concentration needed to reduce the phenylephrine contraction of rabbit aorta rings by 50%. Here is the method:
B-1. Vasorelaxant Action In Vitro
Rabbits are stunned by a blow to the neck and exsanguinated. The aorta is removed, freed from adhering tissue and divided into rings of width 1.5 mm, which are placed individually under prestress into 5 ml organ baths with carbogen-sparged Krebs-Henseleit solution at 37° C. having the following composition (each mM): sodium chloride 119; potassium chloride: 4.8; calcium chloride dihydrate: 1; magnesium sulfate heptahydrate: 1.4; potassium dihydrogenphosphate: 1.2; sodium hydrogencarbonate: 25; glucose: 10. The contractile force is determined with Statham UC2 cells, amplified and digitalized using A/D transducers (DAS-1802 HC, Keithley Instruments Munich), and recorded in parallel on linear recorders. To obtain a contraction, phenylephrine is added to the bath cumulatively in increasing concentration. After several control cycles, the substance to be studied is added in increasing dosage each time in every further run, and the magnitude of the contraction is compared with the magnitude of the contraction attained in the last preceding run. This is used to calculate the concentration needed to reduce the magnitude of the control value by 50% (IC50 value). The standard administration volume is 5 μl; the DMSO content in the bath solution corresponds to 0.1%.

The molecule `Nc1nc(-n2nc(Cc3ccccc3F)c3ncccc32)nc2[nH]c(=O)[nH]c12` [Example 90, 6-Amino-2-[3-(2-fluorobenzyl)-1H-pyrazolo[4,3-b]pyridin-1-yl]-7,9-dihydro-8H-purin-8-one] gave a pIC50 of 5.22.

In turn, `Nc1nc(-n2nc(Cc3ccccc3F)c3ncccc32)nc2[nH]c(=O)n(Cc3ccc(F)cc3)c12` [Example 91, 6-Amino-7-(4-fluorobenzyl)-2-[3-(2-fluorobenzyl)-1H-pyrazolo[4,3-b]pyridin-1-yl]-7,9-dihydro-8H-purin-8-one] showed a pIC50 of 6.32.

Consider `Nc1nc(-n2nc(Cc3ccccc3F)c3ncccc32)nc2[nH]c(=O)n(CCO)c12` [Example 92, 6-Amino-2-[3-(2-fluorobenzyl)-1H-pyrazolo[4,3-b]pyridin-1-yl]-7-(2-hydroxyethyl)-7,9-dihydro-8H-purin-8-one], for which the pIC50 was 6.27.

In turn, `Cn1c(=O)[nH]c2nc(-c3nn(Cc4ccccc4F)c4ncc(F)cc34)ncc21` [Example 95, 2-[5-Fluoro-1-(2-fluorobenzyl)-1H-pyrazolo[3,4-b]pyridin-3-yl]-7-methyl-7,9-dihydro-8H-purin-8-one] showed a pIC50 of 7.36.

With `Fc1cnc2c(c1)c(-c1ncc3cc[nH]c3n1)nn2Cc1ccccc1F` [Example 97, 5-Fluoro-1-(2-fluorobenzyl)-3-(7H-pyrrolo[2,3-d]pyrimidin-2-yl)-1H-pyrazolo[3,4-b]pyridine], the pIC50 was 6.33.

In turn, `COC(=O)N1CC(=O)Nc2nc(-c3nn(Cc4ccccc4F)c4ncccc34)nc(N)c21` [Example 98, Methyl 4-amino-2-[1-(2-fluorobenzyl)-1H-pyrazolo[3,4-b]pyridin-3-yl]-7-oxo-7,8-dihydropteridine-5(6H)-carboxylate] gave a pIC50 of 7.15.

`CNc1nc(-c2nn(Cc3ccccc3F)c3ncccc23)nc2[nH]c(=O)n(CC(F)F)c12` [Example 103, 7-(2,2-Difluoroethyl)-2-[1-(2-fluorobenzyl)-1H-pyrazolo[3,4-b]pyridin-3-yl]-6-(methylamino)-7,9-dihydro-8H-purin-8-one] had a negative logarithm of the IC50 (pIC50) of 6.18.

In the case of `O=c1[nH]c2nc(-c3nn(Cc4ccccc4F)c4ncccc34)ncc2n1C1CCN(C2CC2)CC1` [Example 104, 7-(1-Cyclopropylpiperidin-4-yl)-2-[1-(2-fluorobenzyl)-1H-pyrazolo[3,4-b]pyridin-3-yl]-7,9-dihydro-8H-purin-8-one], the pIC50 was 7.40.

In turn, `COC(=O)N1NC(=O)Nc2nc(-c3nn(Cc4ccccc4F)c4ncccc34)nc(N)c21` [Example 105, Methyl 8-amino-6-[1-(2-fluorobenzyl)-1H-pyrazolo[3,4-b]pyridin-3-yl]-3-oxo-3,4-dihydropyrimido[4,5-e][1,2,4]triazine-1(2H)-carboxylate] gave a negative-log IC50 (pIC50) of 6.40.

As for `Cn1c(=O)[nH]c2nc(-c3nn(Cc4ccccc4F)c4ncccc34)nc(N3CCC3)c21` [Example 112, 6-(Azetidin-1-yl)-2-[1-(2-fluorobenzyl)-1H-pyrazolo[3,4-b]pyridin-3-yl]-7-methyl-7,9-dihydro-8H-purin-8-one], the pIC50 was 5.87.

As to `Cc1nc(-c2nn(Cc3ccccc3F)c3ncccc23)nc2[nH]c(=O)[nH]c12` [Example 119, 2-[1-(2-Fluorobenzyl)-1H-pyrazolo[3,4-b]pyridin-3-yl]-6-methyl-7,9-dihydro-8H-purin-8-one], the pIC50 is 6.13.

Consider `CC(C)(C)Cn1c(=O)[nH]c2nc(-c3nn(Cc4ccccc4F)c4ncccc34)ncc21` [Example 122, 7-(2,2-Dimethylpropyl)-2-[1-(2-fluorobenzyl)-1H-pyrazolo[3,4-b]pyridin-3-yl]-7,9-dihydro-8H-purin-8-one], for which the pIC50 was 7.38.

As for `O=c1[nH]c2nc(-c3nn(Cc4ccccc4F)c4ncccc34)ncc2n1Cc1ccccc1F` [Example 124, 7-(2-fluorobenzyl)-2-[1-(2-fluorobenzyl)-1H-pyrazolo[3,4-b]pyridin-3-yl]-7,9-dihydro-8H-purin-8-one], the pIC50 was 7.06.

The term pIC50 denotes the negative decadic logarithm of the IC50, by convention in mol/L. Low readings indicate a high IC50, high ones a low IC50.

The record behind these values is US9096592B2, “Bicyclic aza heterocycles, and use thereof” (BAYER INTELLECTUAL PROPERTY GMBH, priority 2010, dated 2015).
